Measured values as given in US8980948B2, “Topical application of travoprost for combating hair loss” (Galderma Research & Development, priority 2007, dated 2015).

Assays:
C57BL/6 mouse = test: Model of regrowth of the body hair in the C57BL/6 mouse; type: in vivo; settings: for Regrowth of the body hair versus ethanol ΔAUC (D 1-D 22): topical 50 μl
From the text: The C57BU6 mice are each a particularly useful model for the study of hair growth:
In C57BU6 mice, the fur is black. In the trunk of the animals, the melanocytes are present solely in the hair follicles and the production of pigment is strictly correlated with the anagen phase of the hair cycle (Slominski A. and Paus R., J. Invest. Dermatol., 10, 90S-97S, 1993).
In young mice, the hair cycles are not in phase throughout the body but are synchronized in a region according to a rostro-caudal wave (Hale P. A. and Ebling F. J., J. Exp. Zool., 191, 49-62). At 42 days, the hair follicles of the dorsal region enter the telogen phase (Chase H. B. Physiol. Rev., 34, 113-126, 195).
Thus, after clipping and shaving the backs of C57BU6 mice aged 42 days, the regrowth can be easily visualized before the hair shafts appear at the surface by the grey appearance which the skin assumes. The delay in appearance of the grey color of the skin and the delay in appearance of the hair shafts after clipping and shaving represent criteria which give an account of the rate of entry of the hair follicle into the anagen phase and the rate of growth of the hair shaft. These two criteria will thus be used to evaluate the activity on the hair growth of the compounds tested.
The male C57BU6 mice are aged 42 days at the beginning of the study. The groups are formed of 10 animals.
On day D0, the backs of the animals are clipped with Minicut clippers equipped with a shoe (retention of 4 mm of hair shaft) and shaved with a Braun razor.
The study is carried out over 21 days.
The hair growth is evaluated according to the criteria defined in:
Minoxidil in solution in ethanol at 2.5% is used as positive control of the regrowth of the body hair.
Travoprost in its isopropyl ester form is used in solution in ethanol at 0.01%.
The travoprost, the minoxidil and the carrier are administered by the topical route using a pipette at the rate of 50 μl per application.
The minoxidil and the carrier are administered in repeated daily fashion from day 1 to day 21 of the study. Two different treatments are carried out with the travoprost: a first group receiving a single administration on day 1 of the study and a second group receiving five repeated daily and consecutive administrations from day 1 to day 5 of the study.
The following calculations are carried out: • Mean±SEM of the scores per day for each group treated. • Areas under the curve (AUC) of the regrowth scores per animal from D1 to D22. • Mean±SEM of the AUC values per treatment group. • Percentage of increase in the AUC values for each treated group versus the carrier group.
The AUC is obtained by summing the areas of the rectangles from the first and the final day of the study. The different treatment groups are compared with the carrier group with regard to this parameter by means of a Student's t-test.

human hair follicles = test: Human hair follicles kept alive: elongation of the hair shaft in organ culture; type: cell-based; settings: 1 μM in DMSO; for Elongation at D 7: cumulative from D0, mean
Description: Human hair follicles are dissected while keeping the bulb and the connective and epithelial sheaths intact to be cultured in an appropriate medium which makes it possible to provide for the growth of the follicle ex vivo while keeping its structure intact in the growth or anagen phase (Stenn, Ann. N.Y. Acad. Sci., 1991, Dec. 26, 642, xi-xiii). The growth of the hair follicles in vitro is then evaluated using the measurement of elongation of the […].
Human hair follicles of “terminal” type are isolated from a skin sample resulting from facial surgery (lifting). For this, the skin is cut into pieces of approximately 5×5 mm. The hypodermis is separated from the dermis using a scalpel blade. The hair follicles are isolated from the hypodermal part under a binocular magnifier using fine forceps. Only the hair follicles in the growth phase with a bulb and intact connective and epithelial sheaths are retained for study.
The hair follicles thus isolated are incubated at 37° C. in a humid atmosphere (5% CO2 and 95% air) and are cultured individually in suspension for 7 days in William's E medium supplemented with 2 mM of L-glutamine, 10 μg/ml of insulin, 10 ng/ml of hydrocortisone and 1% of antibiotics/antimitotics. The culture medium is replaced every 2 or 3 days.
The travoprost in its acid form is taken up in DMSO at a concentration of 10^−2M and stored at −20° C. until used.
The surviving hair follicles are treated with the DMSO carrier at a final concentration of 0.1% or with the travoprost acid at a concentration of 1 μM in DMSO (final DMSO concentration also at 0.1%). For each condition, 22 hair follicles are treated individually subsequent to culturing at D0. In the case of a repeated treatment, the travoprost acid at 1 μM in DMSO is replaced at the time of the change in medium, this being done for 7 days. In the case of a single treatment, the travoprost acid at 1 μM DMSO is added to the culture medium just once in the culturing.
The growth of the hair follicles is determined by the measurement of the elongation of the hair shaft from day D0 to day D7. The elongation of the hair shaft is analyzed using Tina image analysis software. The measurements are carried out on hair follicles isolated at days D0, D3, D5 and D7.
The mean post-D0 length (by definition: the mean of the lengths measured on the days following D0) is considered:
The mean post-D0 length is a function: • of the initial length at D0 • of the treatment group • of other factors related to technological or biological variability.
In this study example, 15 hair follicles (all groups mixed up) out of 66 cultured were discarded.
It is assumed that the mean post-D0 length is the sum of four components:
Some measurements, referred to as “aberrant” measurements, can have a highly disruptive effect on the estimation of the effects of the model. A robust ANOVA method is applied with regard to these measurements: “LTS” (Least Trimmed Squares). The principle of the LTS method is as follows: • 1. A definition is made at the start of a fixed proportion p0 of observations which it is desired to ignore in the estimation of the effects (p0=10%) among all the observations present independently of the treatment (observations of the entire study). The corresponding number of observations is denoted n0. • 2. n0 points are selected at random and excluded from the estimation process. • 3. The parameters (effects) of the model are estimated. • 4. Among the observations, excluded and non-excluded, the n0 observations which are the least well predicted by the model are identified. • 5. The n0 least well predicted observations found in stage 4, are, in their turn, excluded from the estimation process. • 6. Stage 3 (estimation) is reverted to until the observations excluded in stage 5 remain unchanged (“convergence”).
The LTS process is repeated a large number of times (200) starting from different random selections. […]

[1] = single treatment at the time of culturing

Nc1cc(N2CCCCC2)nc(N)[n+]1[O-] [Minoxidil, 2,4-diamino-6-piperidinopyrimidine 3-oxide]
Regrowth of the body hair versus ethanol ΔAUC (D 1-D 22) (C57BL/6 mouse; 2.5% in ethanol, repeated daily administrations (21 days)): +34% | Regrowth of the body hair versus ethanol ΔAUC (D 1-D 22) (C57BL/6 mouse; 2.5% in ethanol, repeated daily administrations (21 days), listed as minoxidil): 30% | regrowth of the body hair in comparison with the carrier (C57BL/6 mouse; 2.5%, repeated daily administration for 21 days): accelerates the regrowth of the body hair

CC(C)OC(=O)CCC/C=C\C[C@@H]1[C@@H](/C=C/[C@@H](O)COc2cccc(C(F)(F)F)c2)[C@H](O)C[C@@H]1O [Travoprost, propane-2-yl (Z)-7-[(1R,2R,3R,5S)-3,5-dihydroxy-2-[(1E,3R)-3-hydroxy-4-[3-(trifluoromethyl)phenoxy]but-1-enyl]cyclopentyl]hept-5-enoate]
AUC (D 0-D 7) of hair shaft elongation (human hair follicles; repeated treatment during 7 days): 5.82 | Elongation at D 7 (human hair follicles; repeated treatment during 7 days of culturing): 1.23 mm | AUC (D 0-D 7) of hair shaft elongation (human hair follicles; [1]): 5.83 | Elongation at D 7 (human hair follicles; [1]): 1.27 mm | Regrowth of the body hair versus ethanol ΔAUC (D 1-D 22) (C57BL/6 mouse; 0.01% in ethanol, repeated daily administrations (5 days)): +7% | Regrowth of the body hair versus ethanol ΔAUC (D 1-D 22) (C57BL/6 mouse; 0.01% in ethanol, single administration on day 1): +31% | Regrowth of the body hair versus ethanol ΔAUC (D 1-D 22) (C57BL/6 mouse; 0.01% in ethanol, single administration on day 1, listed as travoprost): 31% | regrowth of the body hair in comparison with the carrier (C57BL/6 mouse; 0.01%, repeated daily and consecutive administrations for 5 days): do not accelerate the regrowth of the body hairs | regrowth of the body hair in comparison with the carrier (C57BL/6 mouse; 0.01%, single administration): significantly accelerates the regrowth of the body hair

O=C(O)CCC/C=C\C[C@@H]1[C@@H](/C=C/[C@@H](O)COc2cccc(C(F)(F)F)c2)[C@H](O)C[C@@H]1O [travoprost acid]
elongation in the hair shaft compared with carrier DMSO (human hair follicles; single treatment): greater than that obtained with the carrier DMSO | time at which the effect on elongation appears (human hair follicles; single treatment): from the third day of treatment
